Results on 7 cell lines are retold here after the supplement of paper PMC10307832.

Assay in all cases: relative viability (nuclei count vs DMSO), 5 days (fraction); higher = more cells survive
Compound in one assay: CS(=O)(=O)c1ccc(-c2cnc(N)c(C(=O)Nc3ccccc3)n2)cc1 [VE-821]
The method, boiled down:
(§1)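 Nuclei counted with MetaXpress define viability as the ratio of treated to vehicle wells, given as a median across plates. The lung cancer cell lines were in 1536-well plates, pinned with five √10-spaced library-drug doses and imaged at 4× after 5 days and Hoechst staining. Plates passed with control CV below 25% and at least one doubling.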

Compound in the next assay: CS(=O)(=O)c1ccc(C(=O)Nc2ccc(Cl)c(-c3ccccn3)c2)c(Cl)c1 [Vismodegib]
In outline: as §1

Compound in the next assay: N#CC[C@H](C1CCCC1)n1cc(-c2ncnc3[nH]ccc23)cn1 [Ruxolitinib]
The method, boiled down: as §1

Compound in the assay “Vismodegib + Dasatinib”: CS(=O)(=O)c1ccc(C(=O)Nc2ccc(Cl)c(-c3ccccn3)c2)c(Cl)c1 [Vismodegib] + Cc1nc(Nc2ncc(C(=O)Nc3c(C)cccc3Cl)s2)cc(N2CCN(CCO)CC2)n1 [Dasatinib] (partner 0.075 µM)
In outline: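 Relative viability divides the nuclei count in treated wells by that in vehicle wells. Lung cancer cell lines were seeded in 1536-well plates, dosed by pin tool the next day, and fixed and stained after 5 days in one step with final 0.05% Triton X-100, 1% formaldehyde and 1 ug/ml Hoechst. Dosing was a single drug or a fixed anchor-drug dose plus five library-drug doses (not always all listed) in √10 steps, and values are medians of duplicate plates imaged at 4×.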

For NCI-H647, the relative viability with VE-821 (0.08 µM) came to 1.11; with VE-821 (0.253 µM) it was 0.9; in the assay with VE-821 (0.8 µM), 0.798; in the assay with VE-821 (2.53 µM), 0.987; in the assay with VE-821 (8 µM), 0.506; in the assay with Vismodegib (0.08 µM), 0.913. In addition, the relative viability came out at 0.863 with Vismodegib (0.253 µM); 0.978 with Vismodegib (0.8 µM); 0.964 in the assay with Vismodegib (2.53 µM); 1.14 with Vismodegib (8 µM); 0.81 with Ruxolitinib (0.08 µM); 0.962 with Ruxolitinib (0.253 µM). In addition, the relative viability in the assay with Ruxolitinib (0.8 µM) amounted to 1.04; with Ruxolitinib (2.53 µM) it was 0.897; in the assay with Ruxolitinib (8 µM) it was 0.836; with Vismodegib + Dasatinib (first compound 0.08 µM), 0.222; with Vismodegib + Dasatinib (first compound 0.253 µM), 0.202; with Vismodegib + Dasatinib (first compound 0.8 µM), 0.177. Also, the relative viability with Vismodegib + Dasatinib (first compound 2.53 µM) amounted to 0.18; with Vismodegib + Dasatinib (first compound 8 µM) it was 0.194.

NCI-H650: the relative viability with VE-821 (0.08 µM) amounted to 1.04; in the assay with VE-821 (0.253 µM), 0.909; with VE-821 (0.8 µM) it was 1.05; in the assay with VE-821 (2.53 µM), 1.1; with VE-821 (8 µM) it was 0.895; with Vismodegib (0.08 µM), 0.953. In addition, the relative viability amounted to 0.895 in the assay with Vismodegib (0.253 µM); 0.88 with Vismodegib (0.8 µM); 0.915 with Vismodegib (2.53 µM); 0.815 in the assay with Vismodegib (8 µM); 0.937 with Ruxolitinib (0.253 µM); 1.01 in the assay with Ruxolitinib (0.8 µM). In addition, the relative viability with Ruxolitinib (2.53 µM) worked out at 0.854; with Ruxolitinib (8 µM), 0.696; with Vismodegib + Dasatinib (first compound 0.08 µM) it was 0.507; with Vismodegib + Dasatinib (first compound 0.253 µM), 0.43; in the assay with Vismodegib + Dasatinib (first compound 0.8 µM) it was 0.358; with Vismodegib + Dasatinib (first compound 2.53 µM), 0.438. Further, the relative viability with Vismodegib + Dasatinib (first compound 8 µM) was found to be 0.441.

Take NCI-H661: the relative viability with VE-821 (0.08 µM) worked out at 0.986; in the assay with VE-821 (0.253 µM), 0.998; with VE-821 (0.8 µM), 0.976; in the assay with VE-821 (2.53 µM), 0.997; with VE-821 (8 µM), 0.919; with Vismodegib (0.08 µM) it was 0.973. Moreover, the relative viability with Vismodegib (0.253 µM) turned out to be 0.975; with Vismodegib (0.8 µM) it was 0.997; with Vismodegib (2.53 µM) it was 0.909; with Vismodegib (8 µM), 1.02; in the assay with Ruxolitinib (0.08 µM), 0.958; in the assay with Ruxolitinib (0.253 µM) it was 0.963. The relative viability in the assay with Ruxolitinib (0.8 µM) is 1.04; in the assay with Ruxolitinib (2.53 µM) it was 1.03; with Ruxolitinib (8 µM), 0.92; with Vismodegib + Dasatinib (first compound 0.08 µM), 0.807; with Vismodegib + Dasatinib (first compound 0.253 µM) it was 0.815; in the assay with Vismodegib + Dasatinib (first compound 0.8 µM), 0.897. For the same cell line, the figures for the relative viability in the assay with Vismodegib + Dasatinib (first compound 2.53 µM) and with Vismodegib + Dasatinib (first compound 8 µM) were 0.892 and 0.856, respectively.

In the case of NCI-H727, the relative viability with VE-821 (0.08 µM) came out at 0.894; with VE-821 (0.253 µM) it was 0.884; with VE-821 (0.8 µM) it was 0.958; in the assay with VE-821 (2.53 µM) it was 0.911; in the assay with VE-821 (8 µM), 0.446; with Vismodegib (0.08 µM), 0.891. The relative viability was found to be 0.931 with Vismodegib (0.253 µM); 0.804 in the assay with Vismodegib (0.8 µM); 0.988 in the assay with Vismodegib (2.53 µM); 0.81 with Vismodegib (8 µM); 0.934 with Ruxolitinib (0.08 µM); 1.02 with Ruxolitinib (0.253 µM). Moreover, the relative viability with Ruxolitinib (0.8 µM) was 1.11; in the assay with Ruxolitinib (2.53 µM), 0.904; in the assay with Ruxolitinib (8 µM), 1.36; in the assay with Vismodegib + Dasatinib (first compound 0.08 µM), 0.307; with Vismodegib + Dasatinib (first compound 0.253 µM), 0.345; in the assay with Vismodegib + Dasatinib (first compound 0.8 µM), 0.342. Besides, the results for the relative viability in the assay with Vismodegib + Dasatinib (first compound 2.53 µM) and with Vismodegib + Dasatinib (first compound 8 µM) were 0.308 and 0.364, respectively.

Consider NCI-H838, for which the relative viability is 1.06 with VE-821 (0.08 µM); 0.887 with VE-821 (0.253 µM); 0.902 with VE-821 (0.8 µM); 1.01 in the assay with VE-821 (2.53 µM); 0.791 with VE-821 (8 µM); 0.906 in the assay with Vismodegib (0.08 µM). Also, the relative viability stood at 0.893 with Vismodegib (0.253 µM); 0.941 with Vismodegib (0.8 µM); 0.947 with Vismodegib (2.53 µM); 0.973 in the assay with Vismodegib (8 µM); 0.918 in the assay with Ruxolitinib (0.08 µM); 0.897 with Ruxolitinib (0.253 µM). The relative viability with Ruxolitinib (0.8 µM) was found to be 0.832; in the assay with Ruxolitinib (2.53 µM), 0.567; with Ruxolitinib (8 µM), 0.478; with Vismodegib + Dasatinib (first compound 0.08 µM) it was 0.213; with Vismodegib + Dasatinib (first compound 0.253 µM), 0.275; with Vismodegib + Dasatinib (first compound 0.8 µM) it was 0.303. In addition, the relative viability with Vismodegib + Dasatinib (first compound 2.53 µM) is 0.285; with Vismodegib + Dasatinib (first compound 8 µM), 0.319.

As to NCI-H1355, the relative viability was determined as 1.05 in the assay with VE-821 (0.08 µM); 0.919 with VE-821 (0.253 µM); 0.963 in the assay with VE-821 (0.8 µM); 1.04 with VE-821 (2.53 µM); 0.604 with VE-821 (8 µM); 0.947 in the assay with Vismodegib (0.08 µM). Besides, the relative viability is 0.992 with Vismodegib (0.253 µM); 0.904 with Vismodegib (0.8 µM); 0.99 with Vismodegib (2.53 µM); 0.93 with Vismodegib (8 µM); 1.07 with Ruxolitinib (0.08 µM); 0.962 in the assay with Ruxolitinib (0.253 µM). Besides, the relative viability turned out to be 0.957 with Ruxolitinib (0.8 µM); 0.922 in the assay with Ruxolitinib (2.53 µM); 0.918 in the assay with Ruxolitinib (8 µM); 0.686 in the assay with Vismodegib + Dasatinib (first compound 0.08 µM); 0.723 with Vismodegib + Dasatinib (first compound 0.253 µM); 0.591 in the assay with Vismodegib + Dasatinib (first compound 0.8 µM). For the same cell line, the relative viability with Vismodegib + Dasatinib (first compound 2.53 µM) was 0.771; in the assay with Vismodegib + Dasatinib (first compound 8 µM), 0.689.

Turning to NCI-H1395, the relative viability worked out at 0.963 with VE-821 (0.08 µM); 0.89 with VE-821 (0.253 µM); 0.792 in the assay with VE-821 (0.8 µM); 0.888 with VE-821 (2.53 µM); 0.665 with VE-821 (8 µM); 0.834 in the assay with Vismodegib (0.08 µM). The relative viability with Vismodegib (0.253 µM) came to 0.878; with Vismodegib (0.8 µM) it was 0.853; with Vismodegib (2.53 µM), 0.829; with Vismodegib (8 µM), 1; with Ruxolitinib (0.08 µM), 0.816; in the assay with Ruxolitinib (0.253 µM), 0.767. Moreover, the relative viability with Ruxolitinib (0.8 µM) amounted to 1.02; with Ruxolitinib (2.53 µM), 0.913; in the assay with Ruxolitinib (8 µM), 0.771; with Vismodegib + Dasatinib (first compound 0.08 µM), 0.385; with Vismodegib + Dasatinib (first compound 0.253 µM) it was 0.389; with Vismodegib + Dasatinib (first compound 0.8 µM), 0.398. Moreover, the relative viability was determined as 0.417 with Vismodegib + Dasatinib (first compound 2.53 µM) and 0.414 in the assay with Vismodegib + Dasatinib (first compound 8 µM).
